Data from PubChem BioAssay AID248 (DTP/NCI, 2004).
“And” between values parts separate entries of the source, which are not always exact repeats. Equal values may be shown once. Inconclusive results and toxic doses are left out. Cut-off read from the data, not from the text of the source: active = T/C of 150% or more; inactive = T/C below 125%.

Test system: L1210 leukemia ip in BDF1 mice, survival T/C
Experiment: NCI In Vivo Anticancer Drug Screen. Data for tumor model L1210 Leukemia (intraperitoneal) in B6D2F1 (BDF1) mice
Conditions: endpoint: mean survival time, higher = longer survival
Outline: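 Each compound was tested against a transplantable tumor grown in mice. The endpoint was survival, with treated animals benchmarked against vehicle controls as a simple ratio.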

[1] = dose: 100.0 mg/kg/injection, schedule: Q01DX009 (ip), vehicle: saline with Tween-80
[2] = dose: 100.0 mg/kg/injection, schedule: Q04DX003 (ip), vehicle: saline with Tween-80
[3] = dose: 200.0 mg/kg/injection, schedule: Q01DX009 (ip), vehicle: saline with Tween-80
[4] = dose: 200.0 mg/kg/injection, schedule: Q04DX003 (ip), vehicle: saline with Tween-80
[5] = dose: 400.0 mg/kg/injection, schedule: Q04DX003 (ip), vehicle: saline with Tween-80
[6] = dose: 100.0 mg/kg/injection, schedule: Q01DX001 (ip), vehicle: saline
[7] = dose: 200.0 mg/kg/injection, schedule: Q01DX001 (ip), vehicle: saline
[8] = dose: 400.0 mg/kg/injection, schedule: Q01DX001 (ip), vehicle: saline
[9] = dose: 100.0 mg/kg/injection, schedule: Q01DX009 (ip), vehicle: Klucel (hydroxypropylcellulose) (HPC)
[10] = dose: 200.0 mg/kg/injection, schedule: Q01DX009 (ip), vehicle: Klucel (hydroxypropylcellulose) (HPC)
[11] = dose: 400.0 mg/kg/injection, schedule: Q01DX009 (ip), vehicle: Klucel (hydroxypropylcellulose) (HPC)
[12] = dose: 100.0 mg/kg/injection, schedule: Q01DX009 (ip), vehicle: saline
[13] = dose: 100.0 mg/kg/injection, schedule: Q04DX003 (ip), vehicle: saline
[14] = dose: 200.0 mg/kg/injection, schedule: Q01DX009 (ip), vehicle: saline
[15] = dose: 200.0 mg/kg/injection, schedule: Q04DX003 (ip), vehicle: saline
[16] = dose: 50.0 mg/kg/injection, schedule: Q01DX001 (ip), vehicle: saline
[17] = dose: 50.0 mg/kg/injection, schedule: Q01DX009 (ip), vehicle: saline
[18] = dose: 100.0 mg/kg/injection, schedule: Q04DX003 (ip), vehicle: Klucel (hydroxypropylcellulose) (HPC)
[19] = dose: 200.0 mg/kg/injection, schedule: Q04DX003 (ip), vehicle: Klucel (hydroxypropylcellulose) (HPC)
[20] = dose: 12.5 mg/kg/injection, schedule: Q04DX003 (ip), vehicle: Klucel (hydroxypropylcellulose) (HPC)
[21] = dose: 25.0 mg/kg/injection, schedule: Q04DX003 (ip), vehicle: Klucel (hydroxypropylcellulose) (HPC)
[22] = dose: 400.0 mg/kg/injection, schedule: Q04DX003 (ip), vehicle: Klucel (hydroxypropylcellulose) (HPC)

Measured: T/C

COc1cc2c(cc1OC)C1C(=CCC3c4cc(OC)c(OC)cc4CC[N+]31C)C=C2 (stereo not drawn)
inactive: dose: 6.25 mg/kg/injection, schedule: Q01DX009 (ip), vehicle: saline with Tween-80 95 % of control | dose: 12.5 mg/kg/injection, schedule: Q01DX009 (ip), vehicle: saline with Tween-80 99 % of control | dose: 25.0 mg/kg/injection, schedule: Q01DX009 (ip), vehicle: saline with Tween-80 102 % of control

Oc1cccnc1CN1CCOCC1
inactive: [1] 96 % of control | [2] 97 % of control | [3] 89 % of control | [4] 108 % of control | dose: 400.0 mg/kg/injection, schedule: Q01DX009 (ip), vehicle: saline with Tween-80 96 % of control | [5] 100 % of control

C=C1C(=O)OCC2(C)CCCCC12 (stereo not drawn)
inactive: dose: 10.0 mg/kg/injection, schedule: Q04DX003 (ip), vehicle: saline 101 % of control | dose: 20.0 mg/kg/injection, schedule: Q04DX003 (ip), vehicle: saline 116 % of control

CCCCC(=O)N/N=C/c1ccc([N+](=O)[O-])cc1
inactive: [6] 95 % of control | [7] 89 % of control | [8] 94 % of control

O=C1c2ccccc2S(=O)(=O)N1CCCBr
inactive: [9] 89 % of control | [10] 89 % of control | [11] 89 % of control

C=CCNP(=O)(OCC)OCC
inactive: dose: 12.5 mg/kg/injection, schedule: Q01DX009 (ip), vehicle: saline 101 % of control | dose: 12.5 mg/kg/injection, schedule: Q04DX003 (ip), vehicle: saline 104 % of control | dose: 25.0 mg/kg/injection, schedule: Q01DX009 (ip), vehicle: saline 87 % of control | dose: 25.0 mg/kg/injection, schedule: Q04DX003 (ip), vehicle: saline 104 % of control | dose: 50.0 mg/kg/injection, schedule: Q04DX003 (ip), vehicle: saline 104 % of control | [12] 104 % of control | [13] 101 % of control | [14] 109 % of control | [15] 115 % of control

Clc1ccc(-c2cc[s+]s2)cc1
inactive: dose: 12.5 mg/kg/injection, schedule: Q01DX009 (ip), vehicle: water 91 % of control | dose: 25.0 mg/kg/injection, schedule: Q04DX003 (ip), vehicle: water 100 % of control | dose: 50.0 mg/kg/injection, schedule: Q01DX009 (ip), vehicle: water 88 % of control | dose: 50.0 mg/kg/injection, schedule: Q04DX003 (ip), vehicle: water 98 % of control | dose: 100.0 mg/kg/injection, schedule: Q04DX003 (ip), vehicle: water 98 % of control and 92 % of control

CC(C)=CCNc1ncnc2c1ncn2C1OC(CO)C(O)C1O (stereo not drawn)
inactive: [16] 98 % of control | [17] 118 % of control | dose: 50.0 mg/kg/injection, schedule: Q01DX015 (ip), vehicle: saline 108 % of control | [6] 93 % of control | [12] 110 % of control | [18] 93 % of control | [2] 96 % of control | dose: 150.0 mg/kg/injection, schedule: Q01DX015 (ip), vehicle: saline 113 % of control | [7] 96 % of control | [19] 104 % of control | [4] 102 % of control

CC1(C)NC(C(=O)O)CS1 (stereo not drawn)
inactive: [6] 101 % of control | [7] 90 % of control | [8] 95 % of control

Clc1cccc(C[P+](c2ccccc2)(c2ccccc2)c2ccccc2)c1
inactive: dose: 1.5 mg/kg/injection, schedule: Q01DX009 (ip), vehicle: Klucel (hydroxypropylcellulose) (HPC) 91 % of control | dose: 3.0 mg/kg/injection, schedule: Q01DX009 (ip), vehicle: Klucel (hydroxypropylcellulose) (HPC) 94 % of control | dose: 6.0 mg/kg/injection, schedule: Q01DX009 (ip), vehicle: Klucel (hydroxypropylcellulose) (HPC) 88 % of control | [20] 98 % of control | [21] 98 % of control

CN(C)C(=O)C1C2C=CC(CC2)C1C(=O)N(C)C (stereo not drawn)
inactive: [13] 96 % of control | [15] 96 % of control | dose: 400.0 mg/kg/injection, schedule: Q04DX003 (ip), vehicle: saline 96 % of control

Cc1ncc(C#N)c(=O)[nH]1
inactive: dose: 25.0 mg/kg/injection, schedule: Q04DX003 (ip), vehicle: saline with Tween-80 92 % of control | dose: 50.0 mg/kg/injection, schedule: Q04DX003 (ip), vehicle: saline with Tween-80 90 % of control | [2] 90 % of control

CN1CCC=C(C(=O)N(c2ccccc2)c2ccccc2)C1
inactive: [17] 106 % of control | [12] 101 % of control | [13] 93 % of control | [14] 97 % of control | [15] 98 % of control

CCCCCCCCCCCCCCCCNS(=O)(=O)c1ccc(NN)cc1
inactive: dose: 50.0 mg/kg/injection, schedule: Q01DX009 (ip), vehicle: Klucel (hydroxypropylcellulose) (HPC) 98 % of control | [9] 99 % of control | [18] 97 % of control | [10] 91 % of control | [19] 95 % of control

Oc1ccc(N=C/C=C/c2ccccc2)cc1
inactive: dose: 100.0 mg/kg/injection, schedule: Q01DX001 (ip), vehicle: carboxymethylcellulose (CMC) 86 % of control | dose: 200.0 mg/kg/injection, schedule: Q01DX001 (ip), vehicle: carboxymethylcellulose (CMC) 89 % of control | dose: 400.0 mg/kg/injection, schedule: Q01DX001 (ip), vehicle: carboxymethylcellulose (CMC) 91 % of control

CCS(=O)(=O)Nc1ccc(NS(=O)(=O)CC)cc1
inactive: [9] 96 % of control | [10] 100 % of control | [11] 101 % of control

C=C(C)C1CCC2(CO)CCC3(C)C(CCC4C5(C)CCC(OC6CCCCO6)C(C)(C)C5CCC43C)C12 (stereo not drawn)
inactive: dose: 25.0 mg/kg/injection, schedule: Q04DX002 (ip), vehicle: saline with Tween-80 96 % of control | dose: 50.0 mg/kg/injection, schedule: Q04DX002 (ip), vehicle: saline with Tween-80 93 % of control

C[N+](C)(C)Cc1ccc2ccccc2c1Br
inactive: [16] 97 % of control

CCCCCCCCN(CCCCCCCC)CC(=O)c1ccc2cc(Br)c3ccccc3c2c1
inactive: dose: 100.0 mg/kg/injection, schedule: Q01DX001 (ip), vehicle: alcohol 101 % of control | dose: 200.0 mg/kg/injection, schedule: Q01DX001 (ip), vehicle: alcohol 100 % of control | dose: 400.0 mg/kg/injection, schedule: Q01DX001 (ip), vehicle: alcohol 103 % of control

CNC(=O)C(=O)NCCCN1CC1
inactive: [20] 114 % of control | [21] 104 % of control

NC(=O)c1ccn(C2OC(CO)C(O)C2O)n1 (stereo not drawn)
inactive: dose: 50.0 mg/kg/injection, schedule: Q01DX005 (ip), vehicle: water 105 % of control | dose: 100.0 mg/kg/injection, schedule: Q01DX005 (ip), vehicle: water 102 % of control | dose: 200.0 mg/kg/injection, schedule: Q01DX005 (ip), vehicle: water 102 % of control

NC(=O)C1C(=O)OC2(CCCC2)C1c1ccccc1 (stereo not drawn)
inactive: [18] 101 % of control | [19] 93 % of control | [22] 97 % of control

CCCCC1=NCCc2c1cc1c([nH]c3ccccc31)c2C
inactive: [13] 96 % of control | [15] 95 % of control

Cc1cn(C2CC(O)C(CN)O2)c(=O)[nH]c1=O (stereo not drawn)
inactive: dose: 100.0 mg/kg/injection, schedule: Q01DX005 (ip), vehicle: saline 96 % of control | dose: 200.0 mg/kg/injection, schedule: Q01DX005 (ip), vehicle: saline 104 % of control

CNC(=O)NS(=O)(=O)c1ccc(Cl)cc1
inactive: dose: 100.0 mg/kg/injection, schedule: Q04DX002 (ip), vehicle: saline with Tween-80 97 % of control and 102 % of control | [2] 103 % of control and 105 % of control | dose: 200.0 mg/kg/injection, schedule: Q04DX002 (ip), vehicle: saline with Tween-80 98 % of control and 91 % of control | [4] 94 % of control and 101 % of control | dose: 400.0 mg/kg/injection, schedule: Q04DX002 (ip), vehicle: saline with Tween-80 97 % of control and 98 % of control | [5] 115 % of control and 90 % of control

CN(C)C1c2cccn2-c2ccccc2S(=O)(=O)C1c1ccccc1[N+](=O)[O-] (stereo not drawn)
inactive: [19] 98 % of control | [22] 96 % of control

O=C1C(Cl)=C(Cl)C(=O)N1c1ccc(Cl)c(Cl)c1
inactive: [1] 98 % of control | [2] 91 % of control | [3] 101 % of control | [4] 87 % of control | [5] 94 % of control
